Values quoted from earlier work, collected in US6683065B1, “Method of treating body insect infestation” (Host Pharmaceuticals LLC, priority 1999, dated 2004).

Settings: at 20° C.

Substance	Surface Tension
n-alkanes	37.8^1 dynes/cm
n-fluoroalkanes	25.9^1 dynes/cm
